Measurements taken from the supplement of paper PMC10307832.

compound: CC1(C)CNc2cc(NC(=O)c3cccnc3NCc3ccncc3)ccc21 [Motesanib] + Cc1cc(Nc2cc(N3CCN(C)CC3)nc(Sc3ccc(NC(=O)C4CC4)cc3)n2)n[nH]1 [Tozasertib] (partner 0.1 µM); test: relative viability (nuclei count vs DMSO), 5 days (fraction); higher = more cells survive; conditions: first compound 1 µM
How it was run: (§1)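 Lung cancer cell lines were pin-tool dosed in 1536-well plates on the day after seeding, with either a lone drug or a fixed anchor-drug dose plus five library-drug doses (not always all listed) in √10 steps. Nuclei were counted on 4× images after 5 days. Relative viability is the ratio of treated-well to vehicle-well nuclei counts, with each value a median of duplicate plates.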

First: H3255
Second: COR-L23
The relative viability of the first is higher: 0.608 for the first, 0.191 for the second.

Going from COR-L 105 to LOU-NH91, the relative viability rises from 0.345 to 0.78.

Going from ChaGo-K-1 to NCI-H2170, the relative viability rises from 0.22 to 0.659.

First: NCI-H2405
Second: HOP-62
The relative viability of the first is higher: 0.784 for the first, 0.395 for the second.

First: HCC-44
Second: NCI-H522
The relative viability of the first is higher: 0.974 for the first, 0.595 for the second.

First: SW 900
Second: NCI-H2009
The relative viability of the first is lower: 0.638 for the first, 0.721 for the second.

Going from NCI-H661 to SK-LU-1, the relative viability falls from 0.351 to 0.263.

Going from NCI-H2228 to NCI-H2023, the relative viability rises from 0.251 to 0.286.

compound: CC1(C)CNc2cc(NC(=O)c3cccnc3NCc3ccncc3)ccc21 [Motesanib] + NC(=O)Nc1cc(-c2cccc(F)c2)sc1C(=O)N[C@H]1CCCNC1 [AZD7762] (partner 0.2 µM); test: as above; conditions: first compound 0.01 µM
How it was run: as §1

First: NCI-H2342
Second: NCI-H727
The relative viability of the first is lower: 0.46 for the first, 0.547 for the second.

First: NCI-H1993
Second: NCI-H838
The relative viability of the first is lower: 0.788 for the first, 0.895 for the second.

Going from LCLC-103H to NCI-H2126, the relative viability rises from 0.802 to 1.04.

Compared with EMC-BAC-2, NCI-H2085 is lower in relative viability: 1.07 for the first, 1.02 for the second.

First: HCC-366
Second: NCI-H1666
The relative viability of the first is lower: 0.278 for the first, 0.809 for the second.

First: NCI-H596
Second: LK-2
The relative viability of the first is higher: 0.973 for the first, 0.364 for the second.

Compared with NCI-H1648, H3255 is higher in relative viability: 0.496 for the first, 0.846 for the second.

First: LOU-NH91
Second: ChaGo-K-1
The relative viability of the first is lower: 0.746 for the first, 0.89 for the second.

Compared with NCI-H2170, NCI-H2405 is lower in relative viability: 0.871 for the first, 0.629 for the second.

Going from HOP-62 to HCC-44, the relative viability rises from 0.456 to 0.93.

Compared with NCI-H522, SW 900 is lower in relative viability: 0.815 for the first, 0.787 for the second.

Work on NCI-H1792 yielded a relative viability of 0.621.

same assay, conditions: first compound 0.03162 µM

Compared with NCI-H2342, NCI-H727 is higher in relative viability: 0.515 for the first, 0.56 for the second.

Compared with NCI-H1703, NCI-H1993 is higher in relative viability: 0.127 for the first, 0.725 for the second.

First: NCI-H838
Second: LCLC-103H
The relative viability of the first is higher: 0.872 for the first, 0.743 for the second.

Compared with NCI-H2126, EMC-BAC-2 is higher in relative viability: 1.05 for the first, 1.1 for the second.

First: NCI-H2085
Second: HCC-366
The relative viability of the first is higher: 0.933 for the first, 0.214 for the second.

First: NCI-H1666
Second: NCI-H596
The relative viability of the first is higher: 0.927 for the first, 0.825 for the second.

First: LK-2
Second: H3255
The relative viability of the first is lower: 0.337 for the first, 0.986 for the second.

First: LOU-NH91
Second: ChaGo-K-1
The relative viability of the first is lower: 0.732 for the first, 0.812 for the second.

Compared with NCI-H2170, NCI-H2405 is lower in relative viability: 0.865 for the first, 0.632 for the second.

First: HOP-62
Second: HCC-44
The relative viability of the first is lower: 0.836 for the first, 1.05 for the second.

First: NCI-H522
Second: SW 900
The relative viability of the first is lower: 0.721 for the first, 0.786 for the second.

In the case of NCI-H1792, the relative viability is reported as 0.706.

same assay, conditions: first compound 0.1 µM

First: NCI-H2342
Second: NCI-H727
The relative viability of the first is lower: 0.571 for the first, 0.856 for the second.

First: NCI-H1703
Second: NCI-H1993
The relative viability of the first is lower: 0.139 for the first, 0.595 for the second.

Going from NCI-H838 to LCLC-103H, the relative viability falls from 0.984 to 0.781.

Going from NCI-H2126 to EMC-BAC-2, the relative viability rises from 0.999 to 1.09.

Going from NCI-H2085 to HCC-366, the relative viability falls from 1.14 to 0.46.

Going from NCI-H1666 to NCI-H596, the relative viability rises from 1.02 to 1.09.

First: LK-2
Second: NCI-H2087
The relative viability of the first is lower: 0.281 for the first, 1.41 for the second.

First: H3255
Second: LOU-NH91
The relative viability of the first is higher: 0.884 for the first, 0.782 for the second.

Compared with ChaGo-K-1, NCI-H2170 is higher in relative viability: 0.804 for the first, 0.82 for the second.

First: NCI-H2405
Second: HOP-62
The relative viability of the first is higher: 0.691 for the first, 0.613 for the second.

Compared with HCC-44, NCI-H522 is lower in relative viability: 1.13 for the first, 0.864 for the second.

First: SW 900
Second: NCI-H1792
The relative viability of the first is lower: 0.552 for the first, 0.92 for the second.

same assay, conditions: first compound 0.3162 µM

Compared with NCI-H2342, NCI-H727 is higher in relative viability: 0.476 for the first, 0.488 for the second.

Going from NCI-H1703 to NCI-H1993, the relative viability rises from 0.13 to 0.676.

Going from NCI-H838 to LCLC-103H, the relative viability falls from 1 to 0.825.

First: NCI-H2126
Second: EMC-BAC-2
The relative viability of the first is lower: 1.03 for the first, 1.2 for the second.

Going from NCI-H2085 to HCC-366, the relative viability falls from 0.953 to 0.248.

Compared with NCI-H1666, NCI-H596 is higher in relative viability: 0.898 for the first, 1.01 for the second.

First: LK-2
Second: NCI-H2087
The relative viability of the first is lower: 0.497 for the first, 1.13 for the second.

Going from NCI-H1648 to H3255, the relative viability rises from 0.702 to 0.816.

Compared with LOU-NH91, ChaGo-K-1 is higher in relative viability: 0.789 for the first, 0.836 for the second.

Compared with NCI-H2170, NCI-H2405 is higher in relative viability: 0.75 for the first, 0.812 for the second.

Compared with HOP-62, HCC-44 is higher in relative viability: 0.761 for the first, 1.08 for the second.

Going from NCI-H522 to SW 900, the relative viability falls from 1 to 0.523.

NCI-H1792 showed a relative viability of 0.635.

same assay, conditions: first compound 1 µM

Compared with NCI-H2342, NCI-H727 is higher in relative viability: 0.459 for the first, 0.58 for the second.

Going from NCI-H1703 to NCI-H1993, the relative viability rises from 0.13 to 0.863.

Compared with NCI-H838, LCLC-103H is lower in relative viability: 0.994 for the first, 0.829 for the second.

Compared with NCI-H2126, EMC-BAC-2 is lower in relative viability: 1.09 for the first, 1.04 for the second.

Going from NCI-H2085 to HCC-366, the relative viability falls from 0.987 to 0.207.

First: NCI-H1666
Second: NCI-H596
The relative viability of the first is lower: 0.909 for the first, 1.13 for the second.

First: LK-2
Second: NCI-H2087
The relative viability of the first is lower: 0.371 for the first, 1.55 for the second.

Going from NCI-H1648 to H3255, the relative viability rises from 0.597 to 0.909.

First: LOU-NH91
Second: ChaGo-K-1
The relative viability of the first is lower: 0.779 for the first, 0.795 for the second.

Compared with NCI-H2170, NCI-H2405 is higher in relative viability: 0.755 for the first, 0.765 for the second.

Compared with HOP-62, HCC-44 is higher in relative viability: 0.595 for the first, 1.02 for the second.

Going from NCI-H522 to SW 900, the relative viability falls from 1 to 0.726.

NCI-H1792 showed a relative viability of 0.71.

compound: CC1(C)CNc2cc(NC(=O)c3cccnc3NCc3ccncc3)ccc21 [Motesanib] + COc1cc2c(Oc3ccc(NC(=O)C4(C(=O)Nc5ccc(F)cc5)CC4)cc3F)ccnc2cc1OCCCN1CCOCC1 [Foretinib] (partner 0.25 µM); test: as above; conditions: first compound 0.01 µM
How it was run: as §1

Going from NCI-H2342 to NCI-H1623, the relative viability falls from 1.03 to 0.869.

First: NCI-H727
Second: NCI-H1650
The relative viability of the first is lower: 0.707 for the first, 1.25 for the second.

Going from EBC-1 to NCI-H1703, the relative viability rises from 0.1 to 0.349.

Going from NCI-H1993 to SW 1573, the relative viability falls from 0.861 to 0.772.

First: NCI-H838
Second: LCLC-103H
The relative viability of the first is higher: 1.17 for the first, 0.809 for the second.

Going from NCI-H520 to NCI-H2126, the relative viability rises from 0.857 to 1.13.

First: EMC-BAC-2
Second: NCI-H2085
The relative viability of the first is higher: 1.01 for the first, 0.896 for the second.

Going from Calu-6 to HCC-366, the relative viability rises from 0.953 to 0.955.

First: NCI-H1666
Second: NCI-H596
The relative viability of the first is higher: 0.979 for the first, 0.817 for the second.

Compared with LK-2, NCI-H2087 is lower in relative viability: 1.21 for the first, 1.02 for the second.

Work on SK-MES-1 yielded a relative viability of 0.949.
